Measurements from article PMC8523698, “Preclinical characterization of an intravenous coronavirus 3CL protease inhibitor for the potential treatment of COVID19” (Nature Communications, 2021).
Several values for one entry are separate records, joined by “and”; a condition that tells them apart may be missing. Equal entries are not always repeated. Where two headings read alike, the source gives them in different places.

Legend:
CYP2C19 = CYP2C19 (Homo sapiens, UniProt P33261); experiment: Reversible CYP inhibition in human liver microsomes; conditions: for activity at 0.214 µM: CYP 2C19, 0.214 µM; for activity at 2.09 µM: CYP 2C19, 2.09 µM; for activity at 4.48 µM: CYP 2C19, 4.48 µM; for activity at 20.5 µM: CYP 2C19, 20.5 µM; for activity at 43.8 µM: CYP 2C19, 43.8 µM
CYP2D6 = CYP2D6 (Homo sapiens, UniProt P10635); experiment: as above
OAT1 = target: T1, OAT1 (Homo sapiens, UniProt Q4U2R8); experiment: Transporter inhibition using transfected HEK293 cells
T1 sequence (Q4U2R8 1-563): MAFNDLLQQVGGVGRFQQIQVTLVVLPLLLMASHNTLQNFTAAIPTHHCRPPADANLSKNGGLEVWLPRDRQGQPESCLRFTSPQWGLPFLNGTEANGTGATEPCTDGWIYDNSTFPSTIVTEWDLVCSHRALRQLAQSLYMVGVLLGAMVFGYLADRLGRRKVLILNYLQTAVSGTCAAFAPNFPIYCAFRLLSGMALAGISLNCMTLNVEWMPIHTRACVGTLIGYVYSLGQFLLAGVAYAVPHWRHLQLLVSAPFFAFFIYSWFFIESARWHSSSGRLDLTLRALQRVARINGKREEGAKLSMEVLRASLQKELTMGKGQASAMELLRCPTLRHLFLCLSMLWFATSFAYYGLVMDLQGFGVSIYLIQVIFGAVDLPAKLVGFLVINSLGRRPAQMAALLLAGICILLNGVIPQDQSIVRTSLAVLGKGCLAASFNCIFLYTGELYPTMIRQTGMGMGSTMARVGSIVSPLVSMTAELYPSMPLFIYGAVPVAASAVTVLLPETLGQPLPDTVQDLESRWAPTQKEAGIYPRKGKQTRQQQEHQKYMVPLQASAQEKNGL

[1] = human, microsomes, pH 7.4, Percent of Control Activity, 30-Minute Preincubation
[2] = human, microsomes, pH 7.4, Percent of Control Activity, Zero-Minute Preincubation

Sequence of CYP2D6 (P10635 whole entry): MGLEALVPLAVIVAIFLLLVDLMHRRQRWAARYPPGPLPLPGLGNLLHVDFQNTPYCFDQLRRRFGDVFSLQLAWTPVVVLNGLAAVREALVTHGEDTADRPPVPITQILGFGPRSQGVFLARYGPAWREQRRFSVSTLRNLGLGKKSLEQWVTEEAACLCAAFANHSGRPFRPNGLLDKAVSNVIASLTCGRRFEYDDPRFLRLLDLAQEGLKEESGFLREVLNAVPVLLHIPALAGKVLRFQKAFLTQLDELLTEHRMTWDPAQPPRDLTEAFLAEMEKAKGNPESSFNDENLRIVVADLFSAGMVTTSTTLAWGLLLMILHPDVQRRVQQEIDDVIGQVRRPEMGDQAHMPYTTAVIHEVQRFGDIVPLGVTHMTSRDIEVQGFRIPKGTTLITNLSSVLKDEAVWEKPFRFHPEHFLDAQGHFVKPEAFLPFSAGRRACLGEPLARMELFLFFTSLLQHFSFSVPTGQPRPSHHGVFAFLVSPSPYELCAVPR
Sequence of CYP2C19 (P33261 whole entry): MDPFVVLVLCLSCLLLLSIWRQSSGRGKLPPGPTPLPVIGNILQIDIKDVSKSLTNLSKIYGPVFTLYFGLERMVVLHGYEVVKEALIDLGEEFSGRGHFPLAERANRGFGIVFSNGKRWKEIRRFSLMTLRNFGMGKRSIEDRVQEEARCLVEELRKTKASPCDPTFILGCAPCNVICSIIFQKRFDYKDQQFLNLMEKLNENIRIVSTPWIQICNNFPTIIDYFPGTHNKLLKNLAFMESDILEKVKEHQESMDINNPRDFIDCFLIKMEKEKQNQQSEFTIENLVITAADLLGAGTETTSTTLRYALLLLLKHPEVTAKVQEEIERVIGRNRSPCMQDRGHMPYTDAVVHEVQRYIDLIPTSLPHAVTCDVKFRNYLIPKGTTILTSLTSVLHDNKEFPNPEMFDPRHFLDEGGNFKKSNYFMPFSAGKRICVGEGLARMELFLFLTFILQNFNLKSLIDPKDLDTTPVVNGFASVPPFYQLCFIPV

## COc1cccc2[nH]c(C(=O)N[C@@H](CC(C)C)C(=O)N[C@@H](C[C@@H]3CCNC3=O)C(=O)CO)cc12 [PF-00835231]
CYP2C19; CYP 2C19, 93.5 µM, Zero-Minute Preincubation, 93.5 µM
  Percent of Control Activity: 77.3%
CYP2C19; CYP 2C19, 200 µM, 30-Minute Preincubation, 200 µM
  Percent of Control Activity: 62.1% and 65.9%
CYP2C19; CYP 2C19, 200 µM, Zero-Minute Preincubation, 200 µM
  Percent of Control Activity: 65.6% and 68.4%
CYP2C19; human, microsomes, pH 7.4
  IC50: > 200 µM
CYP2C19; human, microsomes, pH 7.4, Percent of Control Activity, CYP 2C19, 0.1 µM, Zero-Minute Preincubation
  activity at 0.1 µM: 95.2%
CYP2C19; [1]
  activity at 0.214 µM: 99%
  activity at 2.09 µM: 79.9%
  activity at 4.48 µM: 88.7%
  activity at 20.5 µM: 83.9%
  activity at 43.8 µM: 81.3%
CYP2C19; [2]
  activity at 0.214 µM: 92.9%
  activity at 2.09 µM: 85.8%
  activity at 4.48 µM: 83.6%
  activity at 20.5 µM: 86.2%
  activity at 43.8 µM: 85%
CYP2C19; human, microsomes, pH 7.4, Percent of Control Activity, CYP 2C19, 0.979 µM, Zero-Minute Preincubation
  activity at 0.979 µM: 81.3%
CYP2C19; human, microsomes, pH 7.4, Percent of Control Activity, CYP 2C19, 93.5 µM, 30-Minute Preincubation
  activity at 93.5 µM: 74.5%
CYP2C19; human, microsomes, pH 7.4, Percent of Control Activity, CYP 2C19, 93.5 µM, Zero-Minute Preincubation
  activity at 93.5 µM: 76.8%
CYP2C19; human, microsomes, pH 7.4, Percent of Control Activity, CYP 2C19, 200 µM, 30-Minute Preincubation
  activity at 200 µM: 64.9%
CYP2C19; human, microsomes, pH 7.4, Percent of Control Activity, CYP 2C19, 200 µM, Zero-Minute Preincubation
  activity at 200 µM: 69.2%
CYP2D6; CYP 2D6, 0.1 µM, 30-Minute Preincubation, 0.1 µM
  Percent of Control Activity: 92.9% and 101.4%
CYP2D6; CYP 2D6, 0.1 µM, Zero-Minute Preincubation, 0.1 µM
  Percent of Control Activity: 87.8% and 108.7%
CYP2D6; CYP 2D6, 0.214 µM, 30-Minute Preincubation, 0.214 µM
  Percent of Control Activity: 106.1%
CYP2D6; CYP 2D6, 0.214 µM, Zero-Minute Preincubation, 0.214 µM
  Percent of Control Activity: 101.0% and 100.2%
CYP2D6; CYP 2D6, 0.979 µM, 30-Minute Preincubation, 0.979 µM
  Percent of Control Activity: 107.3% and 99.0%
CYP2D6; CYP 2D6, 0.979 µM, Zero-Minute Preincubation, 0.979 µM
  Percent of Control Activity: 96.4% and 103.2%
CYP2D6; CYP 2D6, 2.09 µM, 30-Minute Preincubation, 2.09 µM
  Percent of Control Activity: 102.6% and 103.8%
CYP2D6; CYP 2D6, 2.09 µM, Zero-Minute Preincubation, 2.09 µM
  Percent of Control Activity: 96.1% and 107.2%
CYP2D6; CYP 2D6, 4.48 µM, 30-Minute Preincubation, 4.48 µM
  Percent of Control Activity: 102.2% and 99.7%
CYP2D6; CYP 2D6, 4.48 µM, Zero-Minute Preincubation, 4.48 µM
  Percent of Control Activity: 105.0% and 106.1%
CYP2D6; CYP 2D6, 20.5 µM, 30-Minute Preincubation, 20.5 µM
  Percent of Control Activity: 113.8% and 117.9%
CYP2D6; CYP 2D6, 20.5 µM, Zero-Minute Preincubation, 20.5 µM
  Percent of Control Activity: 108.8%
CYP2D6; CYP 2D6, 43.8 µM, 30-Minute Preincubation, 43.8 µM
  Percent of Control Activity: 122.8% and 114.4%
CYP2D6; CYP 2D6, 43.8 µM, Zero-Minute Preincubation, 43.8 µM
  Percent of Control Activity: 99.1% and 109.2%
CYP2D6; CYP 2D6, 93.5 µM, 30-Minute Preincubation, 93.5 µM
  Percent of Control Activity: 122.0% and 119.6%
CYP2D6; CYP 2D6, 93.5 µM, Zero-Minute Preincubation, 93.5 µM
  Percent of Control Activity: 100.2%
CYP2D6; CYP 2D6, 200 µM, 30-Minute Preincubation, 200 µM
  Percent of Control Activity: 102.0% and 91.1%
CYP2D6; CYP 2D6, 200 µM, Zero-Minute Preincubation, 200 µM
  Percent of Control Activity: 73.5% and 82.2%
CYP2D6; human, microsomes, pH 7.4
  IC50: > 200 µM
CYP2D6; human, microsomes, pH 7.4, Percent of Control Activity, CYP 2D6, 0.1 µM, 30-Minute Preincubation
  activity at 0.1 µM: 103%
CYP2D6; human, microsomes, pH 7.4, Percent of Control Activity, CYP 2D6, 0.214 µM, 30-Minute Preincubation
  activity at 0.214 µM: 102%
CYP2D6; human, microsomes, pH 7.4, Percent of Control Activity, CYP 2D6, 0.214 µM, Zero-Minute Preincubation
  activity at 0.214 µM: 98.6%
CYP2D6; human, microsomes, pH 7.4, Percent of Control Activity, CYP 2D6, 0.979 µM, 30-Minute Preincubation
  activity at 0.979 µM: 104%
CYP2D6; human, microsomes, pH 7.4, Percent of Control Activity, CYP 2D6, 0.979 µM, Zero-Minute Preincubation
  activity at 0.979 µM: 97.7%
CYP2D6; human, microsomes, pH 7.4, Percent of Control Activity, CYP 2D6, 2.09 µM, 30-Minute Preincubation
  activity at 2.09 µM: 104%
CYP2D6; human, microsomes, pH 7.4, Percent of Control Activity, CYP 2D6, 2.09 µM, Zero-Minute Preincubation
  activity at 2.09 µM: 99.9%
CYP2D6; human, microsomes, pH 7.4, Percent of Control Activity, CYP 2D6, 4.48 µM, 30-Minute Preincubation
  activity at 4.48 µM: 109%
CYP2D6; human, microsomes, pH 7.4, Percent of Control Activity, CYP 2D6, 4.48 µM, Zero-Minute Preincubation
  activity at 4.48 µM: 97.2%
CYP2D6; human, microsomes, pH 7.4, Percent of Control Activity, CYP 2D6, 20.5 µM, 30-Minute Preincubation
  activity at 20.5 µM: 118%
CYP2D6; human, microsomes, pH 7.4, Percent of Control Activity, CYP 2D6, 20.5 µM, Zero-Minute Preincubation
  activity at 20.5 µM: 97.6%
CYP2D6; human, microsomes, pH 7.4, Percent of Control Activity, CYP 2D6, 43.8 µM, 30-Minute Preincubation
  activity at 43.8 µM: 119%
CYP2D6; human, microsomes, pH 7.4, Percent of Control Activity, CYP 2D6, 43.8 µM, Zero-Minute Preincubation
  activity at 43.8 µM: 101%
CYP2D6; human, microsomes, pH 7.4, Percent of Control Activity, CYP 2D6, 93.5 µM, 30-Minute Preincubation
  activity at 93.5 µM: 120%
CYP2D6; human, microsomes, pH 7.4, Percent of Control Activity, CYP 2D6, 93.5 µM, Zero-Minute Preincubation
  activity at 93.5 µM: 91.9%
CYP2D6; human, microsomes, pH 7.4, Percent of Control Activity, CYP 2D6, 200 µM, 30-Minute Preincubation
  activity at 200 µM: 95.7%
CYP2D6; human, microsomes, pH 7.4, Percent of Control Activity, CYP 2D6, 200 µM, Zero-Minute Preincubation
  activity at 200 µM: 78.8%
OAT1
  IC50: > 300 µM
OAT1; human, HEK293 cells transfected with OAT1, pH 7.4, probe [3H] para-aminohippuric acid (0.5 µM)
  IC50: > 20 µM
